Results from article PMC8534003, “The Chemokine-Based Peptide, CXCL9(74-103), Inhibits Angiogenesis by Blocking Heparan Sulfate Proteoglycan-Mediated Signaling of Multiple Endothelial Growth Factors” (Cancers, 2021).
Where no end group is shown, it is not given here.

Columns and labels:
HMVECs = assay: In vitro toxicity assay (LIVE/DEAD viability/cytotoxicity); type: cell-based, human; conditions: 0.3 or 3 µM, 24 h, calcein-AM/EthD-1, n = 4
Procedure: HMVECs were seeded in MCDB131 medium supplemented with 3% (v/v) FCS at 8 × 10^3 cells/well in a black, clear bottom 96-well plate coated with 0.1% (v/v) gelatin in PBS. The next day, cells were washed and incubated with control medium (vide supra) alone or in the presence of 0.3 or 3 µM of CXCL9(74-103) or CXCL9(86-103) for 24 h. The negative control cells were treated with 2% (v/v) Triton™ X-100 to induce cell death […] after the start of the experiment, i.e., 1 h prior to the addition of the LIVE/DEAD stain. The toxicity of the peptides was assessed using the LIVE/DEAD viability/cytotoxicity kit (Invitrogen, Carlsbad, CA, USA), according to the manufacturer’s instructions. At 24 h, calcein-acetoxymethyl ester (AM) and ethidium homodimer-1 (EthD-1) in 0.4% (v/v) FCS in DMEM FluoroBrite (Gibco) were added to all wells and the fluorescence was measured in the IncuCyte S3 live cell imaging system (Essen BioScience, Ltd.; Newark, UK).

FGF-2 [1] = target: T1, FGF-2 (Homo sapiens, UniProt P09038); assay: Grating-coupled interferometry (GCI); type: binding; conditions: FGF-2 over immobilized biotinylated CXCL9(74-103), 25 °C, pH 7.4; mean ± SEM, n = 3
T1 construct: purchased R&D Systems
T1 sequence (P09038 143-288): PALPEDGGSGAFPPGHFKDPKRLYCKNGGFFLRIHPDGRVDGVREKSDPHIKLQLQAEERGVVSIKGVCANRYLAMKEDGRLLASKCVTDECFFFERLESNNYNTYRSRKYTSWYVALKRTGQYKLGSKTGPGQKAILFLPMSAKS
Procedure: GCI experiments were performed on a Creoptix WAVEdelta system (Creoptix AG, Wädenswil, Switzerland), which is a label-free surface biosensor system for the characterization of molecular interactions. 4PCP-STA chips (Creoptix AG) were used, which contain a quasi-planar polycarboxyl-matrix with pre-immobilized streptavidin. The running buffer for the experiments was PBS supplemented with 30 mM NaCl, 15 mM L-Arginine, 0.015% (v/v) Tween® 20 and 0.05 mg/mL BSA at pH 7.4 for reducing nonspecific binding. Chips were conditioned using borate buffer (100 mM sodium borate, 1 M NaCl, pH 9.0). Capture was performed by injecting biotinylated CXCL9(74-103) at a concentration of 2 µg/mL and a flow rate of 10 µL/minute over the chip surface, until a density of +/− 160 was reached. After capture of biotinylated CXCL9(74-103), binding with FGF-2 was studied by injecting an FGF-2 concentration series over the chip surface. […] A reference channel was blocked in the same way. Injections of the FGF-2 analyte were performed at 25 °C, with an association and dissociation time of 120 seconds and a flow rate of 40 µL/min. Absence of mass-transport limitation was verified by repeating the experiment at 50 µL/minute. A 1:3 dilution series with six dilutions (4.53 nM, 13.6 nM, 40.7 nM, 122 nM, 367 nM, 1.10 µM; all in duplicate) was analyzed. […]

FGF-2 [2] = conditions: cited from earlier work
From the text: Earlier studies that report on targeting HS-mediated interactions most commonly rely on HS mimetics that either mask HS for GF binding or directly interact with the GF, preventing it from binding to HS [39]. […] Pagano et al. reported that the small molecule inhibitor SM27, derived from the FGF-2-binding region of thrombospondin-1 (TSP-1), selectively bound the heparin-binding site of FGF-2 ...

[3] = system: EGFR and α3β1 integrin / syndecan-4; conditions: cited from earlier work
From the text: Syndecan-4, the most abundant mammalian syndecan, has been described to function as an independent receptor for several heparin-binding growth factors such as FGFs, VEGFs and PDGFs. Upon ligand binding, the HSPGs oligomerize and initiate signaling components such as mammalian target of rapamycin (mTOR), RAC-α serine/threonine-protein kinase (AKT1) and the Rho family of GTPases, which are r ...

## KKKQKNGKKHQKKKVLKVRKSQRSRQKKTT [CXCL9(74-103)]
HMVECs
  cell viability / toxicity: without inducing any cell toxicity
FGF-2 [1]
  koff: 0.00207 s⁻¹
  kon: 20000 M⁻¹ s⁻¹

## TSP-2: another TSP (thrombospondin) with anti-angiogenic activity
FGF-2 [2]
  interaction with FGF-2: able to interact with FGF-2 and interfered with HS and FGFR1 binding

## synstatin (SSTNEGFR): a peptide based on the EGFR interaction motifs
[3]
  displacement from syndecan and cell migration: displaces the RTK and α3β1 integrin from the syndecan and prevents cell migration
